Measurements published in patent publication US9481885B2, “Methods and compositions related to miR-21 and miR-29a, exosome inhibition, and cancer metastasis” (Ohio State Innovation Foundation, priority 2011, dated 2016).

Tested on: human peripheral blood mononuclear cells (PBMCs)
Experiment: ELISA for TNF-α and IL-6 on human PBMCs
Format: cell-based
Conditions: human PBMCs from two healthy donors, Dotap formulations
Protocol: To investigate whether miRNA-induced activation of TLRs also occurs in human cells, an NF-κB reporter assay was performed in HEK-293 cells. NF-κB, a transcription factor modulating the expression of several cytokine genes, is activated by several TLRs, including the only ssRNA-binding human TLRs, TLR7 and TLR8. Therefore, we treated HEK-293 cells expressing human TLR7 or TLR8 (hereafter, TLR7- and TLR8-HEK-293 cells, respectively) with Dotap alone or with Dotap formulations of miR-16, -21, -29a, or -147 and performed an NF-κB reporter assay. As positive controls Gardiquimod and ssRNA40 were used, specific agonists of TLR7 and TLR8, respectively. […] To confirm this conclusion, transfected were TLR8-HEK-293 cells with a plasmid encoding a dominant negative form of TLR8 (TLR8DN) and treated these cells with the miRNAs of interest. In TLR8DN cells, the activation of NF-κB by miR-21 and miR-29a was abolished (FIG. 3F). Also, incubated were TLR7- and TLR8-expressing human peripheral blood mononuclear cells (PBMCs) from two healthy donors with Dotap alone or Dotap formulations of miR-16, -21, -27b, -29a, -147, -574-5p, or ssRNA40 and an ELISA was performed for TNF-α and IL-6. With the exception of PBMCs treated with Dotap alone and with Dotap-miR-16, each of the other miRNAs and ssRNA40 induced the production of TNF-α and IL-6 (FIGS. 3G-3J). […]

For “miR-147: synthetic mature miRNA (SEQ ID NO: 3), sequence similar to RNA33, Dotap formulation (GUGUGUGGAAAUGCUUCUGC; DOTAP formulation, further chemistry not given here)”, the “production of IL-6” value was “induced” and the “production of TNF-α” value was “induced”.
